Data as given in the supplement of paper PMC10627819.

Experiments:
Assay in all cases: fitness (endpoint OD595 vs no drug) (fraction); higher = more growth
S. aureus Newman = tested on: S. aureus Newman
Procedure, shortened: (§1)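 Bacterial fitness was scored as optical density at the stationary-phase transition relative to the robust mean of no-drug control wells. Scores are capped at 1. The growth data were OD595 readings every 30 min for 14 h at 37 °C, background-subtracted against the first reading, from 384-well plates inoculated at OD595 0.01 in TSB, LB Lennox or CY.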

B. subtilis 168 = tested on: B. subtilis 168
Procedure, shortened: as §1

S. aureus DSM 20231 = tested on: S. aureus DSM 20231
Procedure, shortened: as §1
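Note: OD595 on entry to stationary phase over no-drug wells; at most 1.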

N[C@@H]1CONC1=O [Cycloserine D] + Cc1cc(NS(=O)(=O)c2ccc(N)cc2)no1 [Sulfamethoxazol]
fitness
Details | first compound 0.125 µg/mL | first compound 0.25 µg/mL | first compound 0.375 µg/mL | first compound 0.5 µg/mL | first compound 0.75 µg/mL | first compound 1.5 µg/mL
B. subtilis 168, partner 1 µg/mL | 0.941 | 0.933 | – | 0.868 | – | –
B. subtilis 168, partner 2 µg/mL | 0.869 | 0.896 | – | 0.929 | – | –
B. subtilis 168, partner 4 µg/mL | 0.951 | 0.931 | – | ≥ 1 | – | –
S. aureus DSM 20231, partner 1 µg/mL | – | – | ≥ 1 | – | ≥ 1 | 0.93
S. aureus DSM 20231, partner 2 µg/mL | – | – | ≥ 1 | – | 0.913 | 0.982
S. aureus DSM 20231, partner 4 µg/mL | – | – | ≥ 1 | – | 0.929 | ≥ 1
S. aureus Newman, partner 1 µg/mL | – | – | 0.997 | – | 0.979 | 0.949
S. aureus Newman, partner 2 µg/mL | – | – | ≥ 1 | – | ≥ 1 | ≥ 1
S. aureus Newman, partner 4 µg/mL | – | – | ≥ 1 | – | ≥ 1 | ≥ 1

fitness, one replicate
Details | first compound 0.125 µg/mL | first compound 0.25 µg/mL | first compound 0.375 µg/mL | first compound 0.5 µg/mL | first compound 0.75 µg/mL | first compound 1.5 µg/mL
B. subtilis 168, partner 0.5 µg/mL | 0.939 | 0.993 | – | 0.977 | – | –
S. aureus Newman, partner 8 µg/mL | – | – | ≥ 1 | – | ≥ 1 | ≥ 1

N[C@@H]1CONC1=O [Cycloserine D] + Cc1ncc([N+](=O)[O-])n1CCO [Metronidazole]
fitness
Details | partner 0.625 µg/mL | partner 0.781 µg/mL | partner 1.25 µg/mL | partner 1.562 µg/mL | partner 2.5 µg/mL | partner 3.124 µg/mL
B. subtilis 168, first compound 0.125 µg/mL | 0.948 | – | 0.913 | – | 0.937 | –
B. subtilis 168, first compound 0.25 µg/mL | – | – | 0.841 | – | 0.868 | –
B. subtilis 168, first compound 0.5 µg/mL | 0.933 | – | 0.921 | – | 0.973 | –
S. aureus DSM 20231, first compound 0.375 µg/mL | ≥ 1 | – | ≥ 1 | – | ≥ 1 | –
S. aureus DSM 20231, first compound 0.75 µg/mL | ≥ 1 | – | ≥ 1 | – | ≥ 1 | –
S. aureus DSM 20231, first compound 1.5 µg/mL | ≥ 1 | – | ≥ 1 | – | ≥ 1 | –
S. aureus Newman, first compound 0.375 µg/mL | 0.969 | 0.959 | ≥ 1 | 0.976 | 0.97 | 0.985
S. aureus Newman, first compound 0.75 µg/mL | 0.929 | ≥ 1 | ≥ 1 | 0.972 | 0.961 | 0.988
S. aureus Newman, first compound 1.5 µg/mL | 0.912 | ≥ 1 | 0.964 | 0.974 | 0.972 | ≥ 1

N[C@@H]1CONC1=O [Cycloserine D] + Cn1nnc(-c2ccc(-c3ccc(N4C[C@H](CO)OC4=O)cc3F)cn2)n1 [Tedizolid]
fitness
Details | first compound 0.375 µg/mL | first compound 0.75 µg/mL | first compound 1.5 µg/mL
S. aureus DSM 20231, partner 0.0625 µg/mL | 0.95 | 0.942 | 0.923
S. aureus DSM 20231, partner 0.125 µg/mL | 0.738 | 0.802 | 0.827
S. aureus Newman, partner 0.0625 µg/mL | 0.956 | 0.938 | 0.99
S. aureus Newman, partner 0.125 µg/mL | 0.925 | 0.842 | 0.855
